± gives the standard deviation of the averaged measurements.
Legend:
[1] = compound: C=CCn1c(=O)c2cnc(Nc3ccc(N4CCN(C)CC4)cc3)nc2n1-c1cccc(C(C)(C)O)n1 [MK-1775]; experiment: surviving fraction relative to DMSO-only wells; higher = less growth inhibition; details: exposure time: 5 days
Outline: (§1)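 Surviving fraction is CellTiter-Glo luminescence divided by the median of wells given DMSO only. For this, log-phase tumour cell lines went into 384-well plates at 250–500 cells per well and, 24 hours later, into five days of continuous inhibitor exposure at 0.5, 1, 5, 10, 50, 100, 500 and 1000 nM. Lines were screened three times and retained only if replicate Pearson r >0.7 and median Z' >0.3.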

[2] = compound: CC/C(=C(\c1ccc(O)cc1)c1ccc(OCCN(C)C)cc1)c1ccccc1 [AFIMOXIFENE]; experiment: as above; details: exposure time: 5 days
Outline: as §1

Test System	surviving fraction ([1]; 0.5 nM)	surviving fraction ([1]; 1 nM)	surviving fraction ([1]; 5 nM)	surviving fraction ([1]; 10 nM)	surviving fraction ([1]; 50 nM)	surviving fraction ([1]; 100 nM)	surviving fraction ([1]; 500 nM)	surviving fraction ([1]; 1000 nM)	surviving fraction ([2]; 0.5 nM)	surviving fraction ([2]; 1 nM)	surviving fraction ([2]; 5 nM)	surviving fraction ([2]; 10 nM)	surviving fraction ([2]; 50 nM)	surviving fraction ([2]; 100 nM)	surviving fraction ([2]; 500 nM)	surviving fraction ([2]; 1000 nM)
CASKI CERVIX	0.887 ± 0.032	0.916 ± 0.071	0.99 ± 0.044	0.919 ± 0.049	0.479 ± 0.022	0.187 ± 0.012	0.0533 ± 0.0051	0.0453 ± 0.0068	0.882 ± 0.064	0.93 ± 0.023	0.989 ± 0.046	0.977 ± 0.03	1.1 ± 0.071	1.05 ± 0.017	1.01 ± 0.043	0.9003 ± 0.0032
BT20 BREAST	1.12 ± 0.23	1.05 ± 0.19	1.06 ± 0.17	1.04 ± 0.21	1.09 ± 0.3	0.972 ± 0.21	0.162 ± 0.02	0.0827 ± 0.021	1.32 ± 0.11	1.27 ± 0.07	1.24 ± 0.065	1.3 ± 0.096	1.19 ± 0.086	1.28 ± 0.037	1.7 ± 0.076	1.9 ± 0.13
MG63 BONE	1.02 ± 0.033	0.999 ± 0.026	1.07 ± 0.027	1.056 ± 0.0072	1.06 ± 0.053	1 ± 0.068	0.244 ± 0.025	0.121 ± 0.0076	1.06 ± 0.04	1.04 ± 0.027	1.1 ± 0.048	1.07 ± 0.051	1.09 ± 0.05	1.05 ± 0.048	1.02 ± 0.036	1.02 ± 0.049
CAL51 BREAST	0.966 ± 0.047	0.9993 ± 0.0062	1.01 ± 0.016	0.994 ± 0.044	0.853 ± 0.012	0.48 ± 0.031	0.0318 ± 0.0013	0.0317 ± 0.0026	0.988 ± 0.042	0.966 ± 0.054	1.05 ± 0.1	0.984 ± 0.029	1.04 ± 0.046	1.05 ± 0.028	1.08 ± 0.036	0.969 ± 0.028
MDAMB468 BREAST	1.06 ± 0.041	1.05 ± 0.049	1.07 ± 0.089	1.02 ± 0.043	1.12 ± 0.04	0.985 ± 0.029	0.259 ± 0.026	0.0773 ± 0.0029	1.01 ± 0.021	0.991 ± 0.034	1.06 ± 0.054	1.09 ± 0.02	1.12 ± 0.077	1.21 ± 0.046	1.14 ± 0.024	1.05 ± 0.0095
22RV1 PROSTATE	1.01 ± 0.03	1.01 ± 0.066	0.972 ± 0.051	1 ± 0.021	1.03 ± 0.033	0.877 ± 0.083	0.608 ± 0.028	0.263 ± 0.039	1.06 ± 0.088	1.04 ± 0.089	1.09 ± 0.054	1.09 ± 0.016	1.1 ± 0.048	1.06 ± 0.08	1.13 ± 0.056	1.04 ± 0.079
JURKAT HAEMATOPOIETIC AND LYMPHOID TISSUE	1.09 ± 0.017	1.11 ± 0.016	1.08 ± 0.019	1.099 ± 0.0087	0.986 ± 0.038	0.772 ± 0.036	0.039 ± 0.001	0.039	1.06 ± 0.023	1.03 ± 0.026	1.03 ± 0.021	1.04 ± 0.015	0.953 ± 0.024	0.935 ± 0.061	0.991 ± 0.011	1.03 ± 0.025
HUO3N1 BONE	0.979 ± 0.036	0.941 ± 0.032	1 ± 0.034	1.01 ± 0.039	0.995 ± 0.02	0.843 ± 0.041	0.348 ± 0.014	0.204 ± 0.015	1.06 ± 0.046	1.03 ± 0.038	1.1 ± 0.065	1.09 ± 0.029	1.12 ± 0.057	1.06 ± 0.043	0.932 ± 0.074	0.849 ± 0.033
HCC1395 BREAST	0.885 ± 0.071	1.169 ± 0.0022	1.03 ± 0.2	1.14 ± 0.12	0.935 ± 0.1	0.931 ± 0.12	0.741 ± 0.11	0.618 ± 0.083	1.26 ± 0.13	1.15 ± 0.057	1.33 ± 0.13	1.25 ± 0.048	1.19 ± 0.13	1.12 ± 0.12	1.04 ± 0.11	1.09 ± 0.16
ZR751 BREAST	1.18 ± 0.14	1 ± 0.16	0.999 ± 0.19	1.04 ± 0.15	1.01 ± 0.16	1.04 ± 0.17	0.733 ± 0.1	0.622 ± 0.086	1.13 ± 0.23	1.21 ± 0.18	1.09 ± 0.21	1.31 ± 0.19	1.09 ± 0.22	1.07 ± 0.17	1.03 ± 0.19	0.993 ± 0.084
